The test system of series [1] is HepG2 cells. The series can be described thus: MTT viability of HepG2 cells. The series is classed as cell-based, human. As to conditions: 100 μM, 24 h. The method, then: HepG2 human hepatoma cell line was purchased from Shanghai Cell Bank, Chinese Academy of Sciences. HepG2 cells were cultured in DMEM containing […] streptomycin, 50 U/mL penicillin, 2 mM glutamine, and 10% FCS in a humidified atmosphere of 5% CO2 at 37 °C.
The viability of the HepG2 cells was evaluated using the MTT assay via a previous method. In brief, S7 and S10 were dissolved in growth medium to form a peptide solution with a concentration of 200 μM. Then, the peptide solution was added to the growth medium of HepG2 cells with final concentrations of 10, 50, and 100 μM, and the cells were incubated for 24 h with peptide administration. The control group was treated with the growth medium without peptides. SV (1.0 mM) was used as a positive control.

The test system of series [2] is FFA-damaged HepG2 cells. Conditions: regulating PERK/eIF2α and PERK/IκBα pathways; ref [28]; cited from earlier work. From the text: (§1) Bioactive peptides (BPs) have been produced from diverse plant and animal proteins, such as mammals, poultry, beans, mollusks, fish, Antarctic krill, algae, etc. Beyond their important nutritional benefits, BPs show remarkable bioactivity and pharmacological functions, with numerous potential applications for human health. […] For example, GINY and DQW from α-lactalbum ...

For series [3], the system named is OA-induced HepG2 cells. The series can be described thus: Intracellular ROS level (DCFH-DA), OA-induced NAFLD cell model. The format is cell-based, human. As to conditions: pretreated, compared to model group; concentration not given. How it is done:
The OA-induced NAFLD cell model was established according to previous methods. HepG2 cells in the logarithmic growth phase were seeded into 96-well plates and cultivated in a humidified atmosphere of 5% CO2 at 37 °C for 24 h. OA was dissolved in 10% BSA and added to the DMEM with a final concentration of 80 μM. After this, the cells were cultured for 24 h, and the morphologies of the HepG2 cells were observed and photographed using a microscope. The HepG2 cells in the control wells were cultured for 24 h in DMEM without OA.
The ROS level was determined by the dichlorodihydrofluorescein diacetate (DCFH-DA) staining method. Briefly, HepG2 cells were seeded in 12-well plates and DCFH-DA was diluted to a final concentration of 10 μM at a ratio of 1:1000. Next, after the removal of the cell culture medium, the cells were washed three times with PBS. After this, the HepG2 cells were incubated with 10 μM DCFH-DA for 30 min at 37 °C. After washing with PBS three times again, the fluorescence of the HepG2 cells was monitored at 485 nm excitation (535 nm emission). Finally, images were acquired using a fluorescence microscope to observe the fluorescence intensity of DCFH-DA.

In series [4] the target is T1, pancreatic lipase (PL) (Sus scrofa, UniProt P00591).
T1 construct: purchased Solarbio Life Sciences Co., Ltd. (Beijing, China)
T1 sequence (P00591 1-450): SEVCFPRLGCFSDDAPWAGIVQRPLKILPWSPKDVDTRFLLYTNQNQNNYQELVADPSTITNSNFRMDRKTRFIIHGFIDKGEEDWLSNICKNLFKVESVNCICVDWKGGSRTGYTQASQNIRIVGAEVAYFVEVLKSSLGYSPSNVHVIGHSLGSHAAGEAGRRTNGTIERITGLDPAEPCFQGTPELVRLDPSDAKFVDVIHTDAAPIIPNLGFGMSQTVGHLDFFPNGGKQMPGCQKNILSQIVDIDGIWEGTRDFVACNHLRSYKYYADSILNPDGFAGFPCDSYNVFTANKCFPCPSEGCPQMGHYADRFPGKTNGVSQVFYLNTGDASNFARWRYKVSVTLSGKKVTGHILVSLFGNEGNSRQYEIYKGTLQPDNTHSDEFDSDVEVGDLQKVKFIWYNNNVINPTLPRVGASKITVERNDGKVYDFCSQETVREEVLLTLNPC
The series is described as follows: Pancreatic lipase (PL) inhibitory activity. The format is biochemical. As to conditions: PNPB substrate, 15 min pre-incubation, 20 min, 37 °C; absorbance 405 nm.
Description: Sodium taurocholate, pancreatic lipase, cholesterol esterase, and Tris buffer solution were purchased from Solarbio Life Sciences Co., Ltd. (Beijing, China). […] P-nitrophenyl butyrate (PNPB) was purchased from Shanghai Macleans Biochemical Co., Ltd. (Shanghai, China).
The in vitro pancreatic lipase (PL) inhibitory activity was measured using the method of Cai et al. [78], with slight modifications. Pancreatic lipase was first dissolved in 100 mM Tris buffer (2 mg/mL) and the supernatant was obtained by centrifugation. Tris buffer was then prepared as 0.1% (w/v) PNPB solution. The 50 μL peptide sample was incubated with 50 μL Tris buffer solution and 50 μL pancreatic lipase solution at 37 °C for 15 min, and then 100 μL PNPB solution was added. After 20 min at 37 °C, the absorbance value was measured at 405 nm. In the blank group, pure water was used instead of a sample. In the blank control group, the samples were replaced with pure water and the pancreatic lipase solution was replaced with a buffer solution. […] The pancreatic lipase (PL) inhibitory rate was calculated using the following formula:PL inhibitory rate (%) = [1 − (A − A0)/(B − B0)] × 100%(2) where A, A0, B, and B0 are the absorbance values determined at 405 nm of the sample, the sample control, the blank, and the blank control after the reaction, respectively.

The subject of series [5] is LXRα/SREBPs/HMGR pathway. Conditions: via LXRα/SREBPs/HMGR pathway; ref [59],[60]; cited from earlier work. From the text:
(§2) Modern unhealthy lifestyles, especially a HFD and lack of exercise, lead to the large accumulation of lipids in the human body, and the excess FFAs overloaded in the body are transferred from the bloodstream to the liver. If the rate of lipid oxidation is far slower than the synthesis rate, the large amounts of lipids accumulated in the liver will result in lipid metabolism disorder, steatosis, and ultimately the development of NAFLD [4, 58].

Series [6] has as its system liver dysfunction caused by hyperglycemia. As to conditions: ref [29]; cited from earlier work.
From the text: as §1

Series [7] relates to AMP-activated protein kinase (AMPK) pathway. Conditions: via AMPK pathway; ref [58],[61]; cited from earlier work.
From the text: as §2

Series [8] relates to PPARα pathway. As to conditions: activating PPARα pathway; ref [26],[27]; cited from earlier work.
From the text: as §1

Where no end group is shown, it is not given here.

For the molecule “VPDDD [S9, antioxidant peptide separated from swim bladder hydrolysate of the miiuy croaker]”, in series [1], the “Viability of HepG2 cells vs control” value is on record as “remarkably lower than that of the control (p < 0.05)”.

With “VLATSGPG [VLATSGPG (VLA), peptide from salmon skins]”, the “Lipid content and inflammation” value in series [2] was “decrease the lipid content and inflammation”.

Take `CC(=O)N[C@@H](CS)C(=O)O` [NAC]: the “ROS fluorescence intensity” value in series [3] is “showed varying degrees of decrease compared to the model group”.

Consider FSGLR [S7], for which the IC50 in series [4] is 1670 µM.

As to “VFVRN [derived from chickpea protein hydrolysate]”, the “Hypolipidemic activity” value in series [5] was “strong hypolipidemic activity”.

Molecule GIEWA [S10] gave an IC50 in series [4] of 1290 µM.

For VHVV [A tetrapeptide (VHVV) from soy], the “Effect on liver dysfunction” value in series [6] was “strong preventive effect on liver dysfunction caused by hyperglycemia”.

With “IRWWW [antioxidant peptide from Miichthys miiuy muscle]”, the “TG and TC content” value in series [7] is “decrease the content of TG and TC”.

Take “VIAPW [antioxidant peptide from Miichthys miiuy muscle]”: in series [7], the “TG and TC content” value was “decrease the content of TG and TC”.

In the case of GINY [peptide from α-lactalbumin], the “Alleviation of NAFLD” value in series [8] is “decrease lipid deposition and oxidative stress”.

The values are drawn from PMC11857530, “Antioxidant Peptides from Miiuy Croaker Swim Bladders: Ameliorating Effect and Mechanism in NAFLD Cell Model through Regulation of Hypolipidemic and Antioxidant Capacity” (Marine Drugs, 2025).
